# ± gives the expanded uncertainty stated by the source.
# Conditions: Liquid, light scattering
structure (smiles),measurement,setting,value
CCCCCC(=O)OCC [ethyl hexanoate],speed of sound,"382.74 K, 100 kPa",913.07 ± 9.2 m/s
same,speed of sound,"382.74 K, 1000 kPa",922.72 ± 9.3 m/s
same,speed of sound,"382.74 K, 5540 kPa",962.72 ± 9.7 m/s
same,speed of sound,"382.75 K, 4010 kPa",952.21 ± 9.6 m/s
same,speed of sound,"382.76 K, 2560 kPa",934.6 ± 9.4 m/s
same,speed of sound,"382.91 K, 9900 kPa",997.44 ± 10 m/s
same,speed of sound,383.76 K,905.4 ± 9.1 m/s
same,speed of sound,"392.4 K, 5520 kPa",933.47 ± 9.4 m/s
same,speed of sound,"392.41 K, 7010 kPa",940.67 ± 9.5 m/s
same,speed of sound,"392.42 K, 8480 kPa",949.6 ± 9.6 m/s
same,speed of sound,"392.47 K, 100 kPa",878.33 ± 8.8 m/s
same,speed of sound,"392.47 K, 1030 kPa",884.09 ± 8.9 m/s
same,speed of sound,"392.47 K, 4000 kPa",919.08 ± 9.2 m/s
same,speed of sound,"392.51 K, 2490 kPa",902.62 ± 9.1 m/s
same,speed of sound,"392.92 K, 9950 kPa",966.97 ± 9.8 m/s
same,speed of sound,393.3 K,870.1 ± 8.8 m/s
same,speed of sound,"402 K, 6970 kPa",908.77 ± 9.2 m/s
same,speed of sound,"402.03 K, 100 kPa",843.55 ± 8.5 m/s
same,speed of sound,"402.03 K, 1040 kPa",854.91 ± 8.6 m/s
same,speed of sound,"402.06 K, 2470 kPa",868.02 ± 8.7 m/s
same,speed of sound,"402.06 K, 4030 kPa",883.34 ± 8.9 m/s
same,speed of sound,"402.08 K, 8510 kPa",919.03 ± 9.3 m/s
same,speed of sound,"402.1 K, 5510 kPa",899.47 ± 9.1 m/s
same,speed of sound,402.64 K,834.9 ± 8.4 m/s
same,speed of sound,"402.68 K, 10070 kPa",936.79 ± 9.4 m/s
same,speed of sound,"412.72 K, 100 kPa",808.74 ± 8.2 m/s
same,speed of sound,"412.72 K, 1040 kPa",815.66 ± 8.2 m/s
same,speed of sound,"412.8 K, 2570 kPa",833.03 ± 8.4 m/s
same,speed of sound,"412.88 K, 5600 kPa",865.88 ± 8.7 m/s
same,speed of sound,"412.88 K, 7020 kPa",871.35 ± 8.8 m/s
same,speed of sound,"412.89 K, 8470 kPa",886.33 ± 8.9 m/s
same,speed of sound,"412.91 K, 4020 kPa",848.61 ± 8.6 m/s
same,speed of sound,"412.99 K, 10030 kPa",903.23 ± 9.1 m/s
same,speed of sound,413.59 K,800.8 ± 8.1 m/s
same,speed of sound,"423.69 K, 9950 kPa",868.97 ± 8.8 m/s
same,speed of sound,423.96 K,764 ± 7.7 m/s
same,speed of sound,"423.99 K, 8470 kPa",850.59 ± 8.6 m/s
same,speed of sound,"424.01 K, 6980 kPa",840.66 ± 8.5 m/s
same,speed of sound,"424.04 K, 5530 kPa",826.28 ± 8.3 m/s
same,speed of sound,"424.11 K, 2540 kPa",796.64 ± 8 m/s
same,speed of sound,"424.11 K, 4010 kPa",811.39 ± 8.2 m/s
same,speed of sound,"424.14 K, 100 kPa",773.9 ± 7.8 m/s
same,speed of sound,"424.14 K, 1010 kPa",774.99 ± 7.8 m/s
same,speed of sound,"432.74 K, 8510 kPa",826.01 ± 8.3 m/s
same,speed of sound,"432.77 K, 7030 kPa",813.37 ± 8.2 m/s
same,speed of sound,"432.78 K, 5380 kPa",798.35 ± 8.1 m/s
same,speed of sound,"432.84 K, 9890 kPa",842.12 ± 8.5 m/s
same,speed of sound,"432.92 K, 3990 kPa",780.75 ± 7.9 m/s
same,speed of sound,"433.17 K, 100 kPa",739.02 ± 7.5 m/s
same,speed of sound,"433.17 K, 1030 kPa",746.97 ± 7.5 m/s
same,speed of sound,"433.17 K, 2510 kPa",762.64 ± 7.7 m/s
same,speed of sound,433.99 K,730.3 ± 7.4 m/s
same,speed of sound,"442.85 K, 5610 kPa",765.41 ± 7.7 m/s
same,speed of sound,"442.88 K, 4100 kPa",748.87 ± 7.6 m/s
same,speed of sound,"442.9 K, 930 kPa",715.97 ± 7.2 m/s
same,speed of sound,"442.9 K, 2480 kPa",729.4 ± 7.4 m/s
same,speed of sound,"442.91 K, 6990 kPa",777.33 ± 7.9 m/s
same,speed of sound,"442.92 K, 8480 kPa",791.24 ± 8 m/s
same,speed of sound,443.55 K,697.6 ± 7 m/s
same,speed of sound,"452.58 K, 5540 kPa",735.89 ± 7.5 m/s
same,speed of sound,"452.61 K, 7110 kPa",747.91 ± 7.6 m/s
same,speed of sound,"452.63 K, 8380 kPa",764.36 ± 7.7 m/s
same,speed of sound,"452.65 K, 4080 kPa",717.86 ± 7.3 m/s
same,speed of sound,452.9 K,661 ± 6.7 m/s
same,speed of sound,"452.91 K, 2540 kPa",695.59 ± 7 m/s
same,speed of sound,"452.92 K, 1040 kPa",677.79 ± 6.9 m/s
same,speed of sound,"452.93 K, 10000 kPa",781.61 ± 7.9 m/s
same,speed of sound,"462.7 K, 7080 kPa",715.1 ± 7.2 m/s
same,speed of sound,"462.71 K, 4130 kPa",682.75 ± 6.9 m/s
same,speed of sound,"462.71 K, 8400 kPa",730.25 ± 7.4 m/s
same,speed of sound,"462.72 K, 5530 kPa",700.28 ± 7.1 m/s
same,speed of sound,"462.73 K, 2510 kPa",660.98 ± 6.7 m/s
same,speed of sound,"462.91 K, 10060 kPa",751.22 ± 7.6 m/s
same,speed of sound,"462.97 K, 960 kPa",644.49 ± 6.5 m/s
same,speed of sound,463.1 K,628.8 ± 6.4 m/s
same,speed of sound,"471.93 K, 7050 kPa",686.17 ± 7 m/s
same,speed of sound,"471.94 K, 5520 kPa",670.94 ± 6.8 m/s
same,speed of sound,"471.95 K, 8260 kPa",703.27 ± 7.1 m/s
same,speed of sound,"472.03 K, 3960 kPa",653.08 ± 6.6 m/s
same,speed of sound,"472.05 K, 10050 kPa",723.5 ± 7.3 m/s
same,speed of sound,"472.29 K, 2600 kPa",630.72 ± 6.4 m/s
same,speed of sound,"472.41 K, 950 kPa",612.74 ± 6.2 m/s
same,speed of sound,473.82 K,592.4 ± 6 m/s

# — the NIST ThermoML archive (doi:10.1016/j.jct.2015.12.028)
